Test results published in patent EP0231622B1, “Inhibition of the 5-lipoxygenase pathway” (priority 1985, dated 1987).
Read-outs that look alike come from different tables or passages of the source. Marks after values point to notes of the source that are not given here.

Tests used:
[1] = tested on: Polymorphonuclear Leukocytes; assay: Mouse Carrageenan Peritonitis (PMN infiltration); assay type: in vivo, Balb/c mice; settings: p.o.
From the text: (§1) In the following Examples where mice were used, they were male Balb/c mice (20-28 g), and where rats were used, they were male Lewis rats (180-210 g). All mice and rats were obtained from Charles River Breeding Laboratories, Kingston, N.Y. Within a single experiment, mice and rats were sex and age matched.
(§2) The compounds of Formula (IA) were used either as the free base or in the appropriate salt form. Levamisole was used as the hydrochloride salt. The compounds were homogenized in 0.5% tragacanth. Compounds were administered by gavage at the indicated dose in a final volume of 10 ml/kg. Nordihydroguaiaretic acid (NDGA) was solubilized in dimethylacetamide and diluted with olive oil for subcutaneous administration.
Mice were pretreated with either the test compound or vehicle one hour before the intraperitoneal injection of a 1.0% carrageenan suspension in saline (0.2 ml/ mouse). Mice were sacrificed by cervical dislocation two hours after injection, and 3.0 ml of phosphate buffered saline, without Ca⁺⁺ or Mg⁺⁺, was injected into the peritoneum. Following massage, a 2.0 ml aliquot of the lavage fluid was removed, and the total cell count determined on a Coulter counter and differential cell count determined by microscopic examination of Giesma-stained slides.

[2] = tested on: Carrageenan-Induced Cellular Infiltration; assay: Carrageenan-induced air pouch inflammation; assay type: in vivo, Lewis rats; settings: 100 mg/kg; 3 hours after carrageenan
From the text: as §1, §2
(§3) Rats were shaved on the dorsal flank, and then injected subcutaneously one day later with 20 ml of air to form a defined pouch, by the method of Sedgwick et al., J. Pathology, 141, 483-495 (1983). The air pouch was reinflated as necessary over the next 6 days. To assay anti-inflammatory activity, animals were treated orally with test compound or vehicle (10 ml/kg) one hour before injection of 2.0 ml of a 2.0% carrageenan suspension containing 200 units/ml penicillin and 100 »g/ml streptomycin into the air pouch. In other experiments, 5 ml of 0.1% arachidonic acid in 0.2 M bicarbonate buffer was injected two hours after drug treatment. Animals were sacrificed using CO₂ three hours after instillation of irritant. The exudate was then aspirated from the pouch and neutrophil count and differential cell count were measured.

[3] = tested on: Arachidonic Acid-Induced Cellular Infiltration; assay: Arachidonic acid-induced air pouch inflammation; assay type: in vivo, Lewis rats; settings: 100 mg/kg; 3 hours after arachidonic acid
From the text: as §1, §2, §3

[4] = tested on: Arachidonic Acid-Induced Rat Paw Edema; assay: Arachidonic acid-induced rat paw swelling; assay type: in vivo, Lewis rats; settings: 100 mg/kg, read at 2 hours
From the text: as §1, §2

[5] = tested on: Arachidonic Acid-Induced Inflammation of the Mouse Ear; assay: Arachidonic acid-induced mouse ear inflammation; assay type: in vivo, Balb/c mice; settings: for % Change / Increase in Ear Thickness at 1 Hour (x 10⁻³ cm): Table 7, p.o.; for % Inhibition of Ear Swelling: Table 7A, NS = not significant
From the text: as §1, §2
Arachidonic acid in acetone (2 mg/20 ul) was applied to the inner surface of the left ear. The thickness of both ears was then measured with a dial micrometer one hour after treatment, and the data were expressed as the change in thickness (10⁻³ cm) between treated and untreated ears.
Test compounds were given orally in 0.5% tragacanth at the times indicated in the text prior to the topical application of arachidonic acid.
Parenteral administration of compound was accomplished by subcutaneous injection of solution as indicated.

[6] = tested on: Production of PGE₂ by Mouse Peritoneal Exudate Cells; assay: PGE2 production by peritoneal macrophages; assay type: cell-based
Method: (§4) For in vitro experiments, compounds were dissolved at appropriate concentrations in ethanol or DMSO (dimethylsulfoxide) (final concentration <1.0%) and then diluted to final concentrations using the buffers indicated in the text.
Mice were injected intraperitoneally with 350 »g Corynebacterium parvum and the peritoneal exudate cell population was harvested 12-14 days later by peritoneal lavage with cold phosphate-buffered saline, and resuspended in Eagles minimal essential medium supplemented with 5% fetal calf serum. […] Test compounds were added (100 ul) to bring the final volume to 1.0 ml. Lipopolysaccharide (5 »g/ml) was then added to stimulate PGE₂ synthesis. After incubation at 37°C for 2 hours, cell-free supernatants were harvested, placed in polypropylene tubes and frozen at -20°C until assayed for their PGE₂ content using a commercial radioimmunoassay kit. IC₅₀ is the concentration that inhibits 50% of control activity.

[7] = biological target: T1, 5-Lipoxygenase (Rattus norvegicus, UniProt P12527); assay: 5-HETE production by RBL-1 high speed supernatant; assay type: biochemical; settings: Table 8A; RBL-1 high speed supernatant
T1 construct: The activities of these enzymes in extracts of RBL-1 cells were assayed; host or cells: RBL-1 cells, disrupted by nitrogen cavitation; 10,000 x g or 100,000 x g supernatant
T1 sequence (P12527 1-673): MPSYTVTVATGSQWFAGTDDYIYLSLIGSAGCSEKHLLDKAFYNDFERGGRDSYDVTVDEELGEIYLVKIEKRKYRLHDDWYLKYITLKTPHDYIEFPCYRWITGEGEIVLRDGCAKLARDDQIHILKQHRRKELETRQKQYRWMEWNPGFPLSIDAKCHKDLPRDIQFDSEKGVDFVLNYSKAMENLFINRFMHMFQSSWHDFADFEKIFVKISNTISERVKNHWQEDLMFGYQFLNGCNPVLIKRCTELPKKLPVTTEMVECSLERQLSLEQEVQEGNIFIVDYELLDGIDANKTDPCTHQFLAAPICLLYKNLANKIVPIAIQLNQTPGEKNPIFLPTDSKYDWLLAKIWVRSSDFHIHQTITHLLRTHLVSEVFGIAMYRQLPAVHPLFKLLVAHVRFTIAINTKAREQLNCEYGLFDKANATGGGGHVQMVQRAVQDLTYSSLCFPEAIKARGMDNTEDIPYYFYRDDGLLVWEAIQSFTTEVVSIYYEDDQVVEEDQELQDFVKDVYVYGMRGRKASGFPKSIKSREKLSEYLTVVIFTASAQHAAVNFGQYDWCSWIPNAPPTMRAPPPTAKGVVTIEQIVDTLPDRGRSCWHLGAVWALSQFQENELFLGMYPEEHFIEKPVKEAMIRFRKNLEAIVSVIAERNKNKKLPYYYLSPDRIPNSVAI
Method: as §4
(§5) The activities of these enzymes in extracts of RBL-1 cells were assayed using the method of Jakschik and Lee, Nature, 287, 51-52 (1980). RBL-1 cells were obtained from the American Type Culture Collection (#CRL 1378) and were grown at 37°C (5% CO₂ in air) in spinner culture in MEM supplemented with 10% heat inactivated fetal calf serum. Harvested cells were washed with 50 mM sodium phosphate buffer, pH 7.0, containing 1 mM EDTA and 0.1% gelatin, resuspended in fresh buffer (5 x 10⁷ cells/ml) and disrupted by nitrogen cavitation using the Parr bomb at 750 psi for 10 min. The broken cell extract was then centrifuged at 10,000 x g for 20 minutes and the supernatant centrifuged at 100,000 x g for 60 minutes. Aliquots (0.25 mls) of the supernatant were preincubated with or without drugs for 10 min, after which 10 ul CaCl₂ (50 mM) was added and the reaction was initiated with 2.5 ul of 2.5 mM arachidonic acid-1-¹⁴C (final concentration was […]; specific activity 20,000 dpm/nmole). After incubation for 3 min at 37°C, the reaction was terminated by addition of 2 volumes (0.5 ml) ice cold acetone and the sample was allowed to deproteinize on ice for 10 min prior to centrifugation at 1,000 x g for 10 min. The deproteinized supernatant was adjusted to pH 3.5 with 2N formic acid and extracted with 2 volumes of ice cold ethyl acetate. The extracted samples were dried under argon, redissolved in ethyl acetate and applied to Whatman LK5D thin layer chromatography (TLC) plates which were developed using the A-9 solvent system [organic phase of ethyl acetate: 2,2,5-trimethylpentane:acetic acid: water (110:50:20:10)] described by Hamberg and Samuelsson, J. Biol. Chem., 241, 257-263 (1966). Arachidonic acid, 5-HETE, di-HETE and PGD₂ were quantified with a Berthold LB 2832 autoscanner.
(§6) The 5-lipoxygenase and LTA₄ synthetase activities were further studied under the following conditions. An additional centrifugation of the RBL-1 supernatant was run at 100,000 x g for 60 min, to remove the particulate cyclooxygenase activity. Sample incubation was done under conditions similar to those described above, i.e., 2 mM CaCl₂ and 25 uM arachidonic acid-1-¹⁴C, however, with an incubation time of 5 min at […]. Under these conditions, only the 5-lipoxygenase pathway metabolites were detectable. The 5-HETE and di-HETEs were formed at a linear rate, and […] amounts of the arachidonic acid-1-¹⁴C substrate were utilized.

[8] = biological target: T2, 5-LO (Rattus norvegicus, UniProt P12527); assay: di-HETE production by RBL-1 high speed supernatant; assay type: biochemical; settings: Table 9A; di-HETE production by RBL-1 high speed supernatant; read-out: 5-LO IC50
T2 construct: The activities of these enzymes in extracts of RBL-1 cells were assayed; host or cells: RBL-1 cells, disrupted by nitrogen cavitation; 10,000 x g or 100,000 x g supernatant
T2 sequence (P12527 1-673): T1 sequence (P12527 1-673)
Method: as §4, §5, §6

[9] = Macrophage, read-out: IC₅₀ production of PGE₂ by inflammatory macrophages
[10] = Peritoneal macrophage, Table 10, LPS-stimulated, C. parvum-elicited peritoneal exudate cells, read-out: IC₅₀ (»M) production of PGE₂

SMILES: O=C1CCN(c2ccccc2)N1 [Phenidone]
- % Change ([1]; Table 1, 50 mg/kg): -51^c %
- PMN x 10⁻⁵/ml (mean ± S.D.) ([1]; Table 1, 50 mg/kg): 5.30 ± 2.25 x 10⁻⁵/ml
- PMN x 10⁻⁵/ml (mean ± S.D.) ([1]; Table 1, 100 mg/kg, 1 h before i.p. carrageenan, read 2 h later): 6.97 ± 3.81 x 10⁻⁵/ml
- % Change ([1]; Table 1, 100 mg/kg, PMN vs vehicle): -36^d %
- % Change ([1]; Table 1, 200 mg/kg): -94^b %
- PMN x 10⁻⁵/ml (mean ± S.D.) ([1]; Table 1, 200 mg/kg): 0.66 ± 0.53 x 10⁻⁵/ml
- Cellular Infiltrate (Total x 10⁻⁶) MN [2]: 3.5 ± 1.4 x 10⁻⁶
- Cellular Infiltrate (Total x 10⁻⁶) PMN [2]: 1.7 ± 0.6^d x 10⁻⁶
- Exudate Volume [2]: 1.5 ± 0.8 mL
- Cellular Infiltrate (Total x 10⁻⁶) MN [3]: 2.2 ± 1.5^d x 10⁻⁶
- Cellular Infiltrate (Total x 10⁻⁶) PMN [3]: 1.3 ± 0.8^e x 10⁻⁶
- Exudate Volume [3]: 2.8 ± 0.4 mL
- Change in Paw Volume ([4]; one hour before arachidonic acid): 0.13 ± 0.05 mL
- (% Inhibition) of change in paw volume [4]: 52%
- ED50 ([5]; Mus musculus, po, 1 hour after 2 mg of arachidonic acid to the ear, read-out: ED₅₀ (inhibition of the edematous response of the ear)): 44 mg/kg
- % Change ([5]; 50 mg/kg): -57^b %
- Increase in Ear Thickness at 1 Hour (x 10⁻³ cm) ([5]; 50 mg/kg, 15 minutes before arachidonic acid): 12.2 ± 1.6 x 10⁻³ cm
- IC50 [6, 9]: 28 µM
- IC50 [6, 10]: 28 µM

SMILES: CC(=O)OC[C@H]1O[C@@H]([S-])[C@H](OC(C)=O)[C@@H](OC(C)=O)[C@@H]1OC(C)=O.CCP(CC)CC.[Au+] [Auranofin]
- PMN x 10⁻⁵/ml (mean ± S.D.) ([1]; Table 3, 2 (mg Au/kg)): 7.50 ± 1.57 x 10⁻⁵/ml

SMILES: CSc1ccc(-c2nc3n(c2-c2ccc(F)cc2)CCS3)cc1 [Compound 47]
- % Inhibition of Ear Swelling ([5]; 50 mg/kg s.c. or i.p.): 22*** %

SMILES: c1ccc([C@H]2CN3CCSC3=N2)cc1 [Levamisole]
- % Change ([1]; Table 3, 100 mg/kg): -37^b %
- PMN x 10⁻⁵/ml (mean ± S.D.) ([1]; Table 3, 100 mg/kg): 5.88 ± 2.70 x 10⁻⁵/ml

SMILES: [O-][S+]1CCn2c1nc(-c1ccncc1)c2-c1ccc(F)cc1 (stereo not drawn) [Compound 42]
- % Inhibition of Ear Swelling ([5]; 50 mg/kg s.c. or i.p.): 50*** %
- IC50 [7]: 101 µM
- IC50 [8]: 60 µM

SMILES: CC(C)Cc1ccc(C(C)C(=O)O)cc1 (stereo not drawn) [Ibuprofen, reference compound]
- % Change ([5]; 250 mg/kg): +20^b %
- Increase in Ear Thickness at 1 Hour (x 10⁻³ cm) ([5]; 250 mg/kg): 30.8 ± 2.0 x 10⁻³ cm
- IC50 [6, 9]: 0.5 µM
- IC50 [6, 10]: 0.5 µM

SMILES: COc1ccc(-c2nc3n(c2-c2ccncc2)CCC3)cc1 [Compound 40, 2-(4-methoxyphenyl)-3-(4-pyridyl)-6,7-dihydro-[5H]-pyrrolo [1,2-a]imidazole]
- % Inhibition of Ear Swelling ([5]; 50 mg/kg oral dosing (p.o.)): 83 (p.o.) %
- IC50 [7]: 16 µM
- IC50 [8]: 10 µM
